We go through 18 compounds from patent US20250136606A1, “MODULATORS OF TRPML, THEIR COMPOSITIONS AND METHODS OF USE” (Caraway Therapeutics, Inc., priority 2021, published 2025).

For orientation: EC50 means the concentration that produces a half-maximal response.

The structures appear in SMILES notation.

Holding throughout (assay type): cell-based
Common to all, as to settings: fluorescent calcium assay

For one assay, the target named is T1, TRPML3 (Homo sapiens, UniProt Q8TDD5).
T1 construct: expressed in transfected cells
T1 sequence (Q8TDD5 1-553): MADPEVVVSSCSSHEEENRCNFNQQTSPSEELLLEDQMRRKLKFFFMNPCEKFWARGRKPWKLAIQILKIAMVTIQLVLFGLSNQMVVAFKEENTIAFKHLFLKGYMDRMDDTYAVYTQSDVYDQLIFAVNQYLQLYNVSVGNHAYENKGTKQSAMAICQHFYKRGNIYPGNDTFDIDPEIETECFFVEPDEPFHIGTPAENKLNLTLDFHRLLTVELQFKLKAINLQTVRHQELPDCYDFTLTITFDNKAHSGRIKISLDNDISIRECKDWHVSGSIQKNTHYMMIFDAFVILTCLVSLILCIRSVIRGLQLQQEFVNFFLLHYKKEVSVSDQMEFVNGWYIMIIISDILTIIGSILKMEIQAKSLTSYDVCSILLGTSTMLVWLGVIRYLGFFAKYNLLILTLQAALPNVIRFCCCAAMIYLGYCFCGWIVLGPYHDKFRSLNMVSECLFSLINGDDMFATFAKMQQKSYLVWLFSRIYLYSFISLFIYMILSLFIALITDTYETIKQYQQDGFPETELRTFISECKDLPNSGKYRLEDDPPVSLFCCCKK
In words: Fluorescent TRPML3 assay (performed as for TRPML1, substituting the TRPML3 subtype). The procedure, abridged: (§1)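 Calcium-influx readout: Fluo4 fluorescence at 480/540 nm, normalised to positive and negative controls per plate, EC50 fitted by non-linear regression. Cells were HEK-293 Trex stable lines, channel expression induced overnight with 0.5 ug/mL doxycycline; tested at 20 micromolar down to 6 nanomolar final, half-log steps, triplicate.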

The next assay addresses T2, TRPML2 (Homo sapiens, UniProt Q8IZK6).
T2 construct: expressed in transfected cells
T2 sequence (Q8IZK6 1-566): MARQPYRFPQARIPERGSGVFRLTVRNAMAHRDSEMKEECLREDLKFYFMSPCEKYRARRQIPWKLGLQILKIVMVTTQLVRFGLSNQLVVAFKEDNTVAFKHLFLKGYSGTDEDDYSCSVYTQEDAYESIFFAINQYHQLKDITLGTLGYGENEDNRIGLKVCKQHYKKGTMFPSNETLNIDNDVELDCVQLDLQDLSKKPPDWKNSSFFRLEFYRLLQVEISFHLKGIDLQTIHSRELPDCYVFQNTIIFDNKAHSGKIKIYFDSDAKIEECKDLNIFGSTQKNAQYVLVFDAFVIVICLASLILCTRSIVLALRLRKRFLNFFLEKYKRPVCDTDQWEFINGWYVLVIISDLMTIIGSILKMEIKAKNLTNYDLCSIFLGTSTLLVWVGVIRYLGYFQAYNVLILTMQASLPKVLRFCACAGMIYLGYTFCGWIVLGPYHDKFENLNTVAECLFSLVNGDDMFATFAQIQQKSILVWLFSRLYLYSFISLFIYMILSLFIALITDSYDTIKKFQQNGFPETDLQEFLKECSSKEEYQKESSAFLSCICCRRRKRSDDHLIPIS
Put plainly: Fluorescent TRPML2 assay (performed as for TRPML1, substituting the TRPML2 subtype). The gist of the method:
as §1

Another assay concerns the target TRPML1 (Homo sapiens, UniProt Q9GZU1). In words: Fluorescent TRPML1 assay (Fluo4-AM calcium fluorescence in doxycycline-induced HEK-293 Trex cells). The procedure, abridged: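 HEK-293 Trex cells stably carrying human TRPML1 (surface-trafficking mutant) were induced overnight with 0.5 ug/mL doxycycline, loaded with 1 micromolar Fluo4-AM, and suspended in Ringer's with 10 mM calcium. Compounds at 20 micromolar to 6 nanomolar final, half-log steps, triplicate; fluorescence 480/540 nm gave percent activity versus controls and EC50 by non-linear regression.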

Sequence of TRPML1 (Q9GZU1 whole entry L15A/L16A/L577A/L578A, form open): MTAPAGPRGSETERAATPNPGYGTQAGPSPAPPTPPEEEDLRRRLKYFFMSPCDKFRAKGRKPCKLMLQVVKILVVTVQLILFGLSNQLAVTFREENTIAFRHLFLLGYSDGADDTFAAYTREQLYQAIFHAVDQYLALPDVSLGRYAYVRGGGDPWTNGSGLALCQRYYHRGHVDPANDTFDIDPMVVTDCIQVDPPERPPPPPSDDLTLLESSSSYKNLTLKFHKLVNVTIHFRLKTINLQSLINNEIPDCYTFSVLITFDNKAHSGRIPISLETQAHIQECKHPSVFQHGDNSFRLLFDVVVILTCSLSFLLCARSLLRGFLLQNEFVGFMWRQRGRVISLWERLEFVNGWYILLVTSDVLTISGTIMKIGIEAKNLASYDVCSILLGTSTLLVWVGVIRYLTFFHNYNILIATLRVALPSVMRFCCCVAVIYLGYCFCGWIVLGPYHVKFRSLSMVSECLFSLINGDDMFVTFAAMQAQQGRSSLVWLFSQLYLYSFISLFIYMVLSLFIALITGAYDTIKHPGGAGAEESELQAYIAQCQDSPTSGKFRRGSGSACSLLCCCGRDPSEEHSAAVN

For the compound `CCOC(=O)N1C[C@H](C)N(c2ncnc3c2c(C2CC2)cn3-c2cccc(Cl)c2)C[C@H]1C` [Compound 132, Ethyl (2R,5S)-4-(7-(3-chlorophenyl)-5-cyclopropyl-7H-pyrrolo[2,3-d]pyrimidin-4-yl)-2,5-dimethylpiperazine-1-carboxylate], the values for the EC50 on TRPML3, on TRPML2 and on TRPML1 were 100 to 500 nM, above 2000 nM and below 100 nM, respectively.

As for `CCOC(=O)N1C[C@H](C)N(c2ncnc3c2c(-c2cccnc2)cn3-c2cccc(Cl)c2)C[C@H]1C` [Compound 133, Ethyl (2R,5S)-4-(7-(3-chlorophenyl)-5-(pyridin-3-yl)-7H-pyrrolo[2,3-d]pyrimidin-4-yl)-2,5-dimethylpiperazine-1-carboxylate], the EC50 on TRPML3 was 500 to 2000 nM; on TRPML2 it was above 2000 nM; on TRPML1 it was 100 to 500 nM.

In the case of `C[C@@H]1CN(c2ncnc3c2c(-c2ccccc2F)cn3-c2ccccn2)[C@@H](C)CN1C(=O)OC(C)(C)C` [Compound 134, tert-butyl (2R,5S)-4-(5-(2-fluorophenyl)-7-(pyridin-2-yl)-7H-pyrrolo[2,3-d]pyrimidin-4-yl)-2,5-dimethylpiperazine-1-carboxylate], the values for the EC50 at TRPML3, at TRPML2 and on TRPML1 were below 100 nM, 100 to 500 nM and below 100 nM, respectively.

Regarding `COc1cncc(-n2cc(-c3ccccc3F)c3c(N4C[C@@H](C)N(C(=O)OC(C)(C)C)C[C@@H]4C)ncnc32)c1` [Compound 135, tert-butyl (2R,5S)-4-(5-(2-fluorophenyl)-7-(5-methoxypyridin-3-yl)-7H-pyrrolo[2,3-d]pyrimidin-4-yl)-2,5-dimethylpiperazine-1-carboxylate], the EC50 on TRPML3 is below 100 nM; on TRPML2, 100 to 500 nM; at TRPML1, below 100 nM.

Consider `Cc1ccnc(-n2cc(-c3ccccc3F)c3c(N4C[C@@H](C)N(C(=O)OC(C)(C)C)C[C@@H]4C)ncnc32)c1` [Compound 136, tert-butyl (2R,5S)-4-(5-(2-fluorophenyl)-7-(4-methylpyridin-2-yl)-7H-pyrrolo[2,3-d]pyrimidin-4-yl)-2,5-dimethylpiperazine-1-carboxylate], for which the EC50 on TRPML3, on TRPML2 and at TRPML1 was below 100 nM throughout.

Take `CCOC(=O)N1C[C@H](C)N(c2ncnc3c2c(-c2ccccc2F)cn3-c2ccccn2)C[C@H]1C` [Compound 137, ethyl (2R,5S)-4-(5-(2-fluorophenyl)-7-(pyridin-2-yl)-7H-pyrrolo[2,3-d]pyrimidin-4-yl)-2,5-dimethylpiperazine-1-carboxylate]: the EC50 is 100 to 500 nM on TRPML3, 500 to 2000 nM at TRPML2 and 100 to 500 nM at TRPML1.

With `CCOC(=O)N1C[C@H](C)N(c2ncnc3c2c(-c2ccccc2F)cn3-c2cncc(OC)c2)C[C@H]1C` [Compound 138, ethyl (2R,5S)-4-(5-(2-fluorophenyl)-7-(5-methoxypyridin-3-yl)-7H-pyrrolo[2,3-d]pyrimidin-4-yl)-2,5-dimethylpiperazine-1-carboxylate], the 50% effective concentration (EC50) at TRPML3, on TRPML2 and on TRPML1 was 500 to 2000 nM in each case.

As to `C[C@H]1CN(C(=O)OC(C)(C)C)CCN1c1ncnc2c1c(C1CC1)cn2-c1cccc(Cl)c1` [Compound 139, tert-butyl (S)-4-(7-(3-chlorophenyl)-5-cyclopropyl-7H-pyrrolo[2,3-d]pyrimidin-4-yl)-3-methylpiperazine-1-carboxylate], the EC50 at TRPML3, at TRPML2 and at TRPML1 was below 100 nM throughout.

With `C[C@H]1CN(C(=O)OC(C)(C)C(F)(F)F)CCN1c1ncnc2c1c(C1CC1)cn2-c1cccc(Cl)c1` [Compound 140, 1,1,1-trifluoro-2-methylpropan-2-yl (S)-4-(7-(3-chlorophenyl)-5-cyclopropyl-7H-pyrrolo[2,3-d]pyrimidin-4-yl)-3-methylpiperazine-1-carboxylate], the EC50 on TRPML3, at TRPML2 and at TRPML1 was below 100 nM throughout.

As for `C[C@@H]1CN(C(=O)OC(C)(C)C(F)(F)F)CCN1c1ncnc2c1c(C1CC1)cn2-c1ccc(Cl)cc1` [Compound 141, 1,1,1-trifluoro-2-methylpropan-2-yl (R)-4-(7-(4-chlorophenyl)-5-cyclopropyl-7H-pyrrolo[2,3-d]pyrimidin-4-yl)-3-methylpiperazine-1-carboxylate], the figures for the EC50 at TRPML3, at TRPML2 and at TRPML1 were below 100 nM, 100 to 500 nM and below 100 nM, respectively.

Regarding `C[C@@H]1CN(c2ncnc3c2c(-c2ccccc2F)cn3-c2cccnc2)[C@@H](C)CN1C(=O)OC(C)(C)C` [Compound 142, tert-butyl (2R,5S)-4-(5-(2-fluorophenyl)-7-(pyridin-3-yl)-7H-pyrrolo[2,3-d]pyrimidin-4-yl)-2,5-dimethylpiperazine-1-carboxylate], the results for the 50% effective concentration (EC50) on TRPML3, on TRPML2 and at TRPML1 were below 100 nM, 500 to 2000 nM and below 100 nM, respectively.

For the compound `CCOC(=O)N1C[C@H](C)N(c2ncnc3c2c(-c2ccccc2F)cn3-c2cccnc2)C[C@H]1C` [Compound 143, ethyl (2R,5S)-4-(5-(2-fluorophenyl)-7-(pyridin-3-yl)-7H-pyrrolo[2,3-d]pyrimidin-4-yl)-2,5-dimethylpiperazine-1-carboxylate], the EC50 on TRPML3 is 500 to 2000 nM; at TRPML2 it was above 2000 nM; at TRPML1, 100 to 500 nM.

On to `CCOC(=O)N1C[C@H](C)N(c2ncnc3c2c(-c2ccccc2F)cn3-c2cc(C)ccn2)C[C@H]1C` [Compound 144, ethyl (2R,5S)-4-(5-(2-fluorophenyl)-7-(4-methylpyridin-2-yl)-7H-pyrrolo[2,3-d]pyrimidin-4-yl)-2,5-dimethylpiperazine-1-carboxylate], for which the figures for the EC50 at TRPML3, at TRPML2 and on TRPML1 were below 100 nM, 500 to 2000 nM and below 100 nM, respectively.

As for `CC(C)(C)OC(=O)N1CCN(c2ncnc3c2c(C2CC2)cn3-c2ccc(Cl)c(F)c2)CC1` [Compound 145, tert-butyl 4-(7-(4-chloro-3-fluorophenyl)-5-cyclopropyl-7H-pyrrolo[2,3-d]pyrimidin-4-yl)piperazine-1-carboxylate], the EC50 on TRPML3 was below 100 nM; on TRPML2, below 100 nM; on TRPML1 it was 100 to 500 nM.

On to `CC(C)(C)OC(=O)N1CCN(c2ncnc3c2c(C2CC2)cn3-c2cc(F)cc(F)c2)CC1` [Compound 146, tert-butyl 4-(5-cyclopropyl-7-(3,5-difluorophenyl)-7H-pyrrolo[2,3-d]pyrimidin-4-yl)piperazine-1-carboxylate], for which the EC50 was below 100 nM on TRPML3, 100 to 500 nM on TRPML2 and 100 to 500 nM at TRPML1.

As to `C[C@@H]1CN(C(=O)OC(C)(C)C)CCN1c1ncnc2c1c(C1CC1)cn2-c1ccc(Cl)cc1` [Compound 147, tert-butyl (R)-4-(7-(4-chlorophenyl)-5-cyclopropyl-7H-pyrrolo[2,3-d]pyrimidin-4-yl)-3-methylpiperazine-1-carboxylate], the EC50 on TRPML3 was below 100 nM; at TRPML2, 100 to 500 nM; at TRPML1 it was 100 to 500 nM.

`C[C@H]1CN(C(=O)OC(C)(C)C(F)(F)F)CCN1c1ncnc2c1c(C1CC1)cn2-c1ccc(Cl)cc1` [Compound 148, 1,1,1-trifluoro-2-methylpropan-2-yl (S)-4-(7-(4-chlorophenyl)-5-cyclopropyl-7H-pyrrolo[2,3-d]pyrimidin-4-yl)-3-methylpiperazine-1-carboxylate]: the EC50 was below 100 nM at TRPML3, 100 to 500 nM at TRPML2 and below 100 nM at TRPML1.

As for `Cc1cncc(-n2cc(C3CC3)c3c(N4CCN(C(=O)OC(C)(C)C)CC4)ncnc32)c1` [Compound 149, tert-butyl 4-(5-cyclopropyl-7-(5-methylpyridin-3-yl)-7H-pyrrolo[2,3-d]pyrimidin-4-yl)piperazine-1-carboxylate], the EC50 lay in the range of 100 to 500 nM on TRPML3, 500 to 2000 nM on TRPML2 and 100 to 500 nM on TRPML1.
